Data as given in patent US20210267996A1, “Compounds for inhibition of inflammation” (Children`s Medical Center Corporation, priority 2018, published 2021).
Entries after “also recorded” stand apart in the source; their conditions may differ.

How the values were obtained:
mouse GSDMA3-3C = target: T1, mouse GSDMA3-3C (Mus musculus, UniProt Q5Y4Y6); experiment: Liposome leakage assay, GSDMA3-3C plus 3C protease; assay type: biochemical; details: read-out: IC50 of liposome leakage; 3C-cleaved GSDMA3-3C
T1 construct: other: 3C-cleaved GSDMA3-3C; Human GSDMD-3C and mouse GSDMA3-3C mutants were constructed by QuikChange Mutagenesis (Agilent Technologies); fused on or other part: His6-MBP tag, removed by TEV before use; The engineered 3C site is cut by 3C protease, so the N-terminal pore-forming fragment is set free in the well

C38A GSDMD = C38A GSDMD (Homo sapiens, UniProt P57764, C38A); experiment: Liposome leakage assay, C38A GSDMD plus caspase-11; assay type: biochemical
Method: (§2) Liposome leakage assay: fluorogenic liposome leakage assay detects leakage of Tb^3+ from Tb^3+-loaded liposomes incubated with GSDMD and caspase-11 (See References 7 and 9). Liposome leakage was detected by an increase in fluorescence when Tb^3+ bound to dipicolinic acid (DPA) in Buffer C. […] The fluorescence intensity of the well was measured at 545 nm with an excitation of 276 nm 1 hr after addition of caspase-11 using a Perkin Elmer EnVision plate reader. The final percent inhibition was calculated as [(fluorescencetest compound−fluorescencenegative control)/(fluorescencepositive control−fluorescencenegative control)]×100, where a well with GSDMD without the test compound was used as positive control, and a well without caspase-11 was used as negative control.

mouse iBMDMs [1] = experiment: AIM2 inflammasome cell death, iBMDMs transfected with poly(dA:dT); assay type: cell-based; details: poly(dA:dT) transfection
NLRP3, GSDMD and HMGB1 = experiment: Peritoneal macrophages of LPS-challenged mice (immunoblot); assay type: in vivo, mouse; details: 6 hrs after LPS
Method: Drug administration and LPS-induced sepsis in mice. […] In the indicated group of mice in FIG. 5h, copper gluconate (0.15 mg/kg) was administered intraperitoneally 6 hr prior to the first injection of DSF. Sepsis was induced in C57BL/6 mice (8-10 weeks old) by intraperitoneal injection of LPS (E. coli O111:B4) at indicated concentrations. In some experiments, mice were treated with copper gluconate (0.15 mg/kg) or vehicle by intraperitoneal injection 5 hr before LPS challenge and then given DSF (50 mg/kg) intraperitoneally dissolved in sesame oil or vehicle 4 hr before and just before LPS challenge (15 mg/kg intraperitoneally). Peritoneal cells were collected by rinsing the peritoneal cavity with ice cold PBS containing 3% FBS 6 hr after LPS challenge. To measure cytokines, blood samples were collected by tail vein bleed 12 hr post LPS challenge and allowed to clot at room temperature. Sera obtained after centrifugation at 2,000×g for 10 min were analysed for inflammatory cytokines by ELISA.
Peritoneal macrophages were harvested 6 hrs later and analysed for NLRP3, GSDMD and HMGB1 by immunoblot.

IL-1β = IL-1β secretion by ELISA, THP-1 plus nigericin; assay type: cell-based, human; details: THP-1, 40 μM
Method: Measurement of cytokines: concentrations of IL-1 (3 in culture supernatants or mouse serum were measured by ELISA kit (R&D Systems) according to the manufacturer's instructions. […] The number of surviving cells was determined by CellTiter-Glo assay (FIGS. 4 and 6) and IL-1β in culture supernatants was assessed by ELISA (FIG. 8) 2 hrs later. […] The number of surviving cells was determined by CellTiter-Glo assay (FIGS. 5 and 7) and IL-1β in culture supernatants was assessed by ELISA (FIG. 9) 2.5 hrs later.

human GSDMD-3C = target: T2, human GSDMD-3C (Homo sapiens, UniProt P57764); experiment: Pore reconstitution on nanodiscs, negative staining EM
T2 sequence (P57764 1-271 limits assumed): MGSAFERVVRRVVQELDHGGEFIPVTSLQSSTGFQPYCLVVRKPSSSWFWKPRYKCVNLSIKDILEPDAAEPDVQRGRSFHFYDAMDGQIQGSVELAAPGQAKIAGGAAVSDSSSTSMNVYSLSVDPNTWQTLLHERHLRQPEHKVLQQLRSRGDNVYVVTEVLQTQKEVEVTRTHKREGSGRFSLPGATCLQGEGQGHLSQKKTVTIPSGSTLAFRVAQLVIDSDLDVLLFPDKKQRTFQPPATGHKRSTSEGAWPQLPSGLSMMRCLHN
Method: To form GSDMD pores on the nanodiscs, purified human GSDMD-3C was incubated with 3C protease in the presence of nanodiscs for 6 hrs on ice. […] For negative staining electron microscopy, a 5-μl sample was placed onto a glow-discharged carbon-coated copper grid (Electron Microscopy Sciences), washed twice with Buffer A, stained with 1% uranyl formate for 1 min, and air-dried. The grids were imaged on the Tecnai G^2 Spirit BioTWIN electron microscope and recorded with an AMT 2 k CCD camera (Harvard Medical School Electron Microscopy Facility).
3C protease cleavage of the engineered GSDMD-3C liberates an active NT fragment.

[2] = target: T3, Alexa 488-labeled His-MBP-GSDMD (Homo sapiens, UniProt P57764); experiment: Microscale thermophoresis (MST) binding assay
T3 construct: made in house; host or cells: E. coli BL21 (DE3)
Method: Fluorescent protein labelling and microscale thermophoresis binding assay: His6-MBP-GSDMD was labeled with AlexaFluor-488 using the Molecular Probes protein labelling kit. Binding of inhibitors to GSDMD was evaluated using microscale thermophoresis (MST). Ligands (49 nM-150 μM) were incubated with purified AlexaFluor-488-labeled protein (80 nM) for 30 min in assay buffer (20 mM HEPES, 150 mM NaCl, 0.05% Tween 20). The sample was loaded into NanoTemper Monolith NT. 115 glass capillaries and MST carried out using 20% LED power and 40% MST power. Kd values were calculated using the mass action equation and NanoTemper software.
The test compounds were assessed for GSDMD binding by microscale thermophoresis (MST).

mouse iBMDMs [3] = experiment: Processing of caspase-1, GSDMD and IL-1β in iBMDMs (immunoblot); assay type: cell-based; details: 1 hr time point
Method: (§1) FIG. 97 contains a bar graph showing results of an experiment where LPS-primed THP-1 cells, after medium removal, were incubated with probe FAM-YVAD-FMK in FLICA assay buffer for another 0.5 hr before fluorescence reading. iBMDMs were pretreated with disulfiram, Bay 11-7082, necrosulfonamide (NSA) or z-VAD-fmk for 1 hr before treated or not with Nigericin for 0.5 hr. Whole cell lysates and culture supernatants were immunoblotted with the indicated antibodies.
as §1, with “FIG. 98” for “FIG. 97”, “for 1” for “for 0.5”
Canonical inflammasome assembly activates caspase-1, which cleaves pro-IL-1β and GSDMD, and the latter is needed to release processed IL-1β and to induce pyroptosis. To assess which steps in NLRP3-mediated inflammation were inhibited post ASC speck formation, LPS-primed THP-1 cells were treated with vehicle, 30 μM z-VAD-fmk or disulfiram 1 hour before adding nigericin, and cleavage and activation of caspase-1, GSDMD, and pro-IL-1β were analysed by immunoblot of whole cell lysates 30 min later and 1 hr later. Secretion of processed IL-1β was also assessed by immunoblot of culture supernatants. […] The 1 hr time point is relevant as the cell death and IL-1β release measurements used cells stimulated with nigericin for 1 and 2 hrs, respectively.

C191A GSDMD = C191A GSDMD (Homo sapiens, UniProt P57764, C191A)
C191A GSDMD, sequence (P57764 whole entry C191A): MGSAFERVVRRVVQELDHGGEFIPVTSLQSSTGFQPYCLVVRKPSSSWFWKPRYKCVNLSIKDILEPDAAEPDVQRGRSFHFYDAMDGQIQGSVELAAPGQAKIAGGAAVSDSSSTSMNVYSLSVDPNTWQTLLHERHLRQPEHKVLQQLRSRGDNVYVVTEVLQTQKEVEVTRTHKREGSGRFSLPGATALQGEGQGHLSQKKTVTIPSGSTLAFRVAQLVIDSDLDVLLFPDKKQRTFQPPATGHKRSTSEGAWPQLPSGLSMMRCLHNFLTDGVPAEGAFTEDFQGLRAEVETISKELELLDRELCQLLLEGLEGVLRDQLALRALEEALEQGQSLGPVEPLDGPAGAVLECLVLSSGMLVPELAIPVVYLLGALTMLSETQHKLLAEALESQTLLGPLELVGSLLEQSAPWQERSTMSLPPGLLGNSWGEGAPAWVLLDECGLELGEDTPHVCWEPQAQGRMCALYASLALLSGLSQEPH
Method: as §2

T3 sequence (P57764 whole entry): as the sequence (P57764 whole entry C191A) above, with A191C counted along it
T1 sequence (Q5Y4Y6 with tags, fused parts or gaps INS262LEVLFQGP, form open): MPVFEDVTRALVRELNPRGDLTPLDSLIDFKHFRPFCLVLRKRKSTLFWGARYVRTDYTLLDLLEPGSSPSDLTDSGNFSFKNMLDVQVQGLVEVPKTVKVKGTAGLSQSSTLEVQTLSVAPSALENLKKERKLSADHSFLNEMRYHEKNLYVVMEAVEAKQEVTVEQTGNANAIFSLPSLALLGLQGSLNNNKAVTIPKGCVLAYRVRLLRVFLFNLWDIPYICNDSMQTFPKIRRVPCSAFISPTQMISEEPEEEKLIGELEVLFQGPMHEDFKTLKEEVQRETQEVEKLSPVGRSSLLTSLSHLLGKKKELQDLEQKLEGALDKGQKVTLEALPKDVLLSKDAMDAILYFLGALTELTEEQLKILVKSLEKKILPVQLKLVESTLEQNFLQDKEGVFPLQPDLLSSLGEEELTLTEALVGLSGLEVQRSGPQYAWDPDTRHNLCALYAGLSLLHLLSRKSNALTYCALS
C38A GSDMD, sequence (P57764 whole entry C38A): as the sequence (P57764 whole entry C191A) above, with C38A, A191C counted along it

Row | SMILES | IC50 (mouse GSDMA3-3C) [µM] | IC50 (C38A GSDMD) [µM] | cell death triggered by the AIM2 inflammasome (mouse iBMDMs [1]) | GSDMD processing in peritoneal macrophages (NLRP3, GSDMD and HMGB1) | NLRP3 priming in mice (NLRP3, GSDMD and HMGB1) | nigericin-induced IL-1β secretion (IL-1β) | effect on already assembled pores (human GSDMD-3C; added after pore formation) | pore formation on nanodiscs (human GSDMD-3C; pretreated before adding to nanodiscs) | binding to GSDMD according to MST [2] | processing of caspase-1, GSDMD and IL-1β (mouse iBMDMs [3]) | fold loss of liposome leakage inhibition, C191A versus WT GSDMD (C191A GSDMD) [fold]
1 | CCN(CC)C(=S)SSC(=S)N(CC)CC [C-23, Tetraethylthiuram disulfide] | 12.1 ± 2.1 | ~0.3 | impaired cell death in a dose-dependent manner | equally processed | did not inhibit NLRP3 priming in mice | potency comparable to the pan-caspase inhibitor z-VAD-fmk | did not disrupt already assembled pores | completely blocked |  |  | 
2 | Cc1ccc(S(=O)(=O)/C=C/C#N)cc1 [Bay 11-7082] |  |  |  |  |  |  |  |  | bound to GSDMD; also recorded: lower affinity | still inhibited processing | 2
